According to US5288718A, “Method for decorporating radioactive isotope from living organism” (priority 1989, dated 1994):
Structures can show the parent of a compound that is named as a salt.

How the values were obtained:
[1] = with increasing atomic number (decreasing ionic size); cited from earlier work
[2] = Ca^2+ compared with Sr^2+; cited from earlier work
Hygroscopicity = assay type: physicochemical; conditions: sodium salt versus lithium salt
Water solubility = assay type: physicochemical; conditions: product of Example 1
[3] = Lethal dose determination, intravenous, mortality within 30 days; conditions: in vivo, DMCRYP salt×NaBr (x=2.5-8) as prepared according to Example I
Description: Healing power of the composition has been evidenced by animal tests. In this way, the minimum and average lethal doses (LD0.1 and LD50, respectively) have been established.
For the determination of lethal doses, the active ingredient was administered intravenously at increasing concentrations to the animals. Minimum and average lethal doses were calculated from the mortality within 30 days. […] On every occasion, one tenth of this dose was introduced into each animal in this experiment.

[4] = Whole-body retention of Sr-85 introduced into the peritoneal cavity, mice (FIG. 1); assay type: in vivo, Swiss mice; conditions: equimolar concentration, isotope in peritoneal cavity
Source text: (§1) In order to test the effect of DMCRYP on enhancing the decorporation of radiostroncium and the rare earth metal radiocerium from the body, male and female Swiss mice and Wistar rats were selected. […] In the comparative tests, a known polyaminopolycarboxylic acid-type decorporant (decorporating agent), calcium-trisodium salt of DTPA (diethylenetriaminopentacetic acid) (Heyl and Co., Berlin) was used at equimolar concentration. The amount of residual isotopes in the animal organisms was determined by whole-body activity measurements in every 1 to 4 days and was expressed as per cent of activity introduced.

[5] = Whole-body retention of cerium-144 introduced peritoneally (FIG. 6, Example 6); assay type: in vivo; conditions: female Swiss mice
Source text: as §1
Treatments were repeated twice, on the Days 2 and 4.

[6] = Whole-body retention of Sr-85 introduced into the peritoneal cavity, female Wistar rats (FIG. 2, Example 2); assay type: in vivo; conditions: equimolar concentration
Source text: as §1

[7] = Whole-body retention of radiostroncium in skin or subcutaneous interstitial tissues (FIG. 3, Example 3); assay type: in vivo; conditions: subcutaneous/skin isotope
Source text: as §1

For O=C(O)CN1CCOCCOCCN(CC(=O)O)CCOCCOCC1 [1,10-diaza-4,7,13,16-tetraoxacyclooctadecane-N,N'-diacetic acid], the “Stability constants of rare earth metal complexes, trend” value [1] is listed as “decrease with the increasing atomic number” and the “Relative stability of Ca^2+ and Sr^2+ complexes” value (“Relative stability” below) [2] is listed as “identical within the experimental error”.

In the case of O=C(O)C(C(=O)O)N1CCOCCOCCN(C(C(=O)O)C(=O)O)CCOCCOCC1 [DMCRYP, 1,4,10,13-tetraoxa-7,16-diazacyclooctadecane-N,N'-dimalonic acid tetrasodium salt], the Hygroscopicity (Hygroscopicity; listed as sodium salt) is reported as “not hygroscopic”, the Water solubility (Water solubility) is reported as “very soluble” and the LD50 at 720 h [3] is reported as 1050 µmol/kg.

For O=C(O)CN(CCN(CC(=O)O)CC(=O)O)CCN(CC(=O)O)CC(=O)O [DTPA, diethylenetriaminopentacetic acid], the “Removal of Sr isotope from the animal body” value [4] was “ineffective”, the “Whole-body retention of cerium-144” value ([5]; Day 2, after first treatment, 100 μmole/kg i.v. 30 minutes after isotope, control 85.9) was 72.8% and the “Effect of second and third treatments” value ([5]; 100 μmole/kg, Days 2 and 4) was “ineffective”. For the same compound, the “Relative stability” value [2] was “considerably more stable with Ca^2+ than with Sr^2+”, the “Retention values compared to control” value [6] was “lower than those in the control but the difference was not statistically significant” and the “Effect of treatment on whole-body retention” value [7] was “ineffective”.

In the case of O=C(O)CN(CCN(CC(=O)O)CC(=O)O)CC(=O)O [EDTA, ethylenediaminetetraacetic acid], the “Relative stability” value [2] is listed as “considerably more stable with Ca^2+ than with Sr^2+”.

For O=C(O)C(C(=O)O)N1CCOCCOCCN(C(C(=O)O)C(=O)O)CCOCCOCC1 [lithium salt], the Hygroscopicity (Hygroscopicity) was “hygroscopic”.
